Test [1] concerns HRV2 N165T/E3G or N165T/A103V. The arrangement: method as in PMID 17908951. The note with it: serial passage of HRV2 for 62 days; cited from earlier work.
The target in test [2] is T1, GV A105V/I109V mutant protease (Norovirus, UniProt Q80J95, A1099V/I1103V).
T1 construct: plasmids expressing norovirus protease from GI.1 (M87661), GII.4 (DQ658413), or GV (DQ285629) norovirus; expressed in transfected cells; host or cells: HEK293T
T1 sequence (Q80J95 995-1177 A1099V/I1103V): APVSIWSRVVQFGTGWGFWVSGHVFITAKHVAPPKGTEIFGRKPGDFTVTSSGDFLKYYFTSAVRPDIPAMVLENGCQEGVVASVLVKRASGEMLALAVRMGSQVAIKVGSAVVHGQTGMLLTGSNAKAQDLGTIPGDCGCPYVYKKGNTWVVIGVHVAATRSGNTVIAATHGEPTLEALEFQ
Put plainly: Cell-based FRET assay, GV A105V/I109V protease. Further details: species or system murine norovirus (MNV) GV (DQ285629). From the text:
(§1) The generation of plasmids expressing norovirus protease from GI.1 (M87661), GII.4 (DQ658413), or GV (DQ285629) norovirus and FRET assay constructs has been described previously ([18]). The plasmids carrying GI, GII, and GV proteases with the A105V, I109V, or A105V/I109V mutation were generated from the wild-type (WT) protease constructs described above by the QuikChange site-directed mutagenesis method. Mutant MNV genomes for reverse genetics were generated by two-step PCR mutagenesis of the WT MNV genome (pT7 MNV 3RZ) construct as described previously ([27]). The primers used for generation of the plasmids are listed in Tables S1 and S2 in the supplemental material.
(§2) The YFP/CFP ratio was used to determine FRET efficiency, as described previously ([18], [40]). Briefly, HEK293T cells were plated into black 96-well cell culture microplates (Greiner Bio-One) at a density of 5 × 10^4 cells/well in 100 μl of DMEM containing 10% fetal bovine serum with or without various concentrations of rupintrivir and then incubated for 4 h in a CO2 incubator at 37°C. […] The plates were then analyzed on a SpectraMax i3 instrument in fluorescence mode, with excitation set at 434 nm and the reading emissions set at 477 nm (CFP) and 527 nm (YFP). The background fluorescence from wells transfected with pcDNA3.1 was determined and subtracted. […]

Test [3] deals with recombinant WT MNV. Put plainly: Antiviral effect against recombinant WT MNV infection of BV-2 cells (TCID50). Type of test: cell-based, murine norovirus. The note with it: BV-2, 24 h. The protocol: BV-2 cells were infected with recombinant WT MNV or the MNV I109V mutant at an MOI of 0.1 or 1 for 1 h in the CO2 incubator at 37°C. After incubation, the supernatant was removed and the cells were washed twice with PBS, and then complete DMEM containing various concentrations of rupintrivir or 2CMC was added to the cells. After 24 h for incubation, the virus titers of the supernatant were determined by measurement of the TCID50. On the basis of the TCID50, the 90% effective concentration (EC90) values of rupintrivir and 2CMC were calculated using XLfit (version 5.3) software.

For test [4], the target named is T2, GI A105V mutant protease (Norovirus, UniProt Q83883, A1205V).
T2 construct: plasmids expressing norovirus protease from GI.1 (M87661); expressed in transfected cells; host or cells: HEK293T
T2 sequence (Q83883 1101-1281 A1205V): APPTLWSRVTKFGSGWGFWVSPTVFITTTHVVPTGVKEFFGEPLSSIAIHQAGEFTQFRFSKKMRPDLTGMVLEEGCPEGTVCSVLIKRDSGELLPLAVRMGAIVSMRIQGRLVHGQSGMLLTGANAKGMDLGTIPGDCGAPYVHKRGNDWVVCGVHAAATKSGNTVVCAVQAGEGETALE
Put plainly: Cell-based FRET assay, GI A105V protease. Further details: species or system norovirus GI.1 (M87661).
Source text: as §1, §2

The test system of test [5] is Norwalk virus replicon. Put plainly: Colony formation assay with HGT-NV cells after 12 days of treatment. Type of test: cell-based, Human norovirus (HuNoV) GI. Conditions: then 1 week G418 1.5 mg/ml without drug. The protocol: HGT-NV cells treated with rupintrivir or DMSO for 12 days in the absence of G418 were plated into 6-well plates in complete DMEM and maintained without rupintrivir in the presence of G418 (1.5 mg/ml). After 1 week of incubation, the colonies on the plate were stained with 0.1% toluidine blue and photographed.

These results are taken from PMC5923142, “Selection and Characterization of Rupintrivir-Resistant Norwalk Virus Replicon Cells In Vitro” (Antimicrobial Agents and Chemotherapy, 2018).

In the case of `CCOC(=O)/C=C/[C@H](C[C@@H]1CCNC1=O)NC(=O)[C@@H](CC(=O)[C@@H](NC(=O)c1cc(C)on1)C(C)C)Cc1ccc(F)cc1` [rupintrivir, Rupintrivir], the fold reduced susceptibility in test [1] was 5 fold. Besides, the IC50 in test [2] (HEK293T cells, GV NS1/2-NS3 FRET substrate) was 2.3 ± 0.3 µM; in test [4] (HEK293T cells, GI NS1/2-NS3 FRET substrate), 4.2 ± 1.1 µM. Moreover, the “fold increase in IC50” value in test [2] (vs GV WT protease) came out at 2.3 fold; in test [4] (vs GI WT protease) it was 3.2 fold. Moreover, the concentration for an effect of 90% (EC90) in test [3] (MOI 0.1 TCID50/cell) stood at 9.1 µM; in test [3] (MOI 1 TCID50/cell), 8.9 µM. Moreover, the colony formation entry in test [5] (2.5 μM for 12 days) is given as “some colonies remained”; in test [5] (5 μM for 12 days), “some colonies remained”; in test [5] (10 μM for 12 days), “completely prevent colony formation”.

Usually IC50 stands for the concentration at which inhibition is half-maximal. A high value points to a need for much substance. What is called EC90 is the concentration at which the effect reaches the 90% level.
